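Grown in 96-well plates, cells were treated for 48 hours with each compound at five concentrations. Insufficient inhibition: endpoint recorded as highest concentration tested. At the GI50, growth is halved.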 Calls of active or inactive are those of the source. Cut-off read from the data, not from the text of the source: active = GI50 up to about 1.1 µM and inactive = higher.
How the values were obtained:
Assay in all cases: NCI anticancer screen, dose series, 48 h
[1] = tested on: UACC-257
[2] = tested on: HOP-92
[3] = tested on: A549
[4] = tested on: MDA-N
[5] = tested on: T47D
[6] = tested on: MCF7
[7] = tested on: K562
[8] = tested on: NCI-H23
[9] = tested on: A498
[10] = tested on: COLO 205
[11] = tested on: SW-620
[12] = tested on: SF-539
[13] = tested on: NCI/ADR-RES
[14] = tested on: HCC 2998
[15] = tested on: U-251
[16] = tested on: SK-MEL-2
[17] = tested on: DU-145
[18] = tested on: Malme-3M
[19] = tested on: CAKI-1
[20] = tested on: UO-31
[21] = tested on: SK-MEL-5
[22] = tested on: HCT-15
[23] = tested on: OVCAR-4
[24] = tested on: SNB-75
[25] = tested on: PC-3
[26] = tested on: CCRF-CEM
[27] = tested on: UACC-62
[28] = tested on: SF-295
[29] = tested on: Hs-578T
[30] = tested on: MDA-MB-231
[31] = tested on: SK-OV-3
[32] = tested on: LOX IMVI
[33] = tested on: NCI-H522
[34] = tested on: SN12C
[35] = tested on: HT-29
[36] = tested on: RPMI-8226
[37] = tested on: HOP-62
[38] = tested on: SF-268
[39] = tested on: RXF 393
[40] = tested on: IGROV-1
[41] = tested on: HL-60
[42] = tested on: NCI-H460
[43] = tested on: KM12
[44] = tested on: M14
[45] = tested on: MOLT-4
[46] = tested on: TK-10
[47] = tested on: MDA-MB-435
[48] = tested on: OVCAR-8
[49] = tested on: HCT-116
[50] = tested on: OVCAR-5
[51] = tested on: BT-549
[52] = tested on: EKVX
[53] = tested on: 786-0
[54] = tested on: NCI-H226
[55] = tested on: OVCAR-3
[56] = tested on: SK-MEL-28
[57] = tested on: ACHN
[58] = tested on: SNB-19
[59] = tested on: SR
[60] = tested on: SNB-78
[61] = tested on: KM-20L2
[62] = tested on: M19-MEL
[63] = tested on: DLD-1
[64] = tested on: DMS-273
[65] = tested on: LXFL 529

`OC(COc1ccc(Cl)cc1Cl)CN1CCCC1` (stereo not given) was tested. Which GI50 [1] did it give?
The GI50 was 24.2 µM (inactive).

And the GI50 [2]?
The GI50 was 75.9 µM (inactive).

What about the GI50 [3] of the same compound?
The GI50 was > 100 µM (inactive).

And the GI50 [4]?
Its GI50 is 56.6 µM (inactive).

And the GI50 [5]?
Its GI50 is > 100 µM (inactive).

What about the GI50 [6] of the same compound?
Its GI50 is > 100 µM (inactive).

What about the GI50 [7] of the same compound?
The GI50 was 71.6 µM (inactive).

What about the GI50 [8] of the same compound?
The GI50 was > 100 µM (inactive).

What about the GI50 [9] of the same compound?
The GI50 was 38.1 µM (inactive).

What about the GI50 [10] of the same compound?
Its GI50 is > 100 µM (inactive).

And the GI50 [11]?
Its GI50 is > 100 µM (inactive).

And the GI50 [12]?
Its GI50 is > 100 µM (inactive).

What about the GI50 [13] of the same compound?
Its GI50 is > 100 µM (inactive).

What about the GI50 [14] of the same compound?
The GI50 was 32.9 µM (inactive).

And the GI50 [15]?
Its GI50 is > 100 µM (inactive).

And the GI50 [16]?
Its GI50 is > 100 µM (inactive).

And the GI50 [17]?
Its GI50 is > 100 µM (inactive).

What about the GI50 [18] of the same compound?
Its GI50 is 60.1 µM (inactive).

And the GI50 [19]?
The GI50 was > 100 µM (inactive).

And the GI50 [20]?
Its GI50 is > 100 µM (inactive).

And the GI50 [21]?
Its GI50 is 27.9 µM (inactive).

What about the GI50 [22] of the same compound?
Its GI50 is > 100 µM.

What about the GI50 [23] of the same compound?
The GI50 was > 100 µM (inactive).

What about the GI50 [24] of the same compound?
Its GI50 is 50.6 µM (inactive).

And the GI50 [25]?
The GI50 was > 100 µM (inactive).

What about the GI50 [26] of the same compound?
The GI50 was 87.9 µM (inactive).

And the GI50 [27]?
The GI50 was 21.7 µM (inactive).

And the GI50 [28]?
The GI50 was 89.7 µM (inactive).

What about the GI50 [29] of the same compound?
The GI50 was 58.3 µM (inactive).

And the GI50 [30]?
The GI50 was > 100 µM (inactive).

What about the GI50 [31] of the same compound?
Its GI50 is > 100 µM (inactive).

What about the GI50 [32] of the same compound?
The GI50 was > 100 µM (inactive).

What about the GI50 [33] of the same compound?
Its GI50 is 52.8 µM (inactive).

And the GI50 [34]?
The GI50 was > 100 µM (inactive).

And the GI50 [35]?
The GI50 was 24.8 µM (inactive).

And the GI50 [36]?
Its GI50 is 57 µM (inactive).

What about the GI50 [37] of the same compound?
The GI50 was > 100 µM (inactive).

What about the GI50 [38] of the same compound?
Its GI50 is > 100 µM (inactive).

What about the GI50 [39] of the same compound?
The GI50 was > 100 µM (inactive).

What about the GI50 [40] of the same compound?
Its GI50 is > 100 µM (inactive).

And the GI50 [41]?
The GI50 was 42.7 µM (inactive).

What about the GI50 [42] of the same compound?
Its GI50 is 91.6 µM (inactive).

What about the GI50 [43] of the same compound?
Its GI50 is > 100 µM (inactive).

What about the GI50 [44] of the same compound?
The GI50 was 20 µM (inactive).

What about the GI50 [45] of the same compound?
The GI50 was 42.6 µM (inactive).

And the GI50 [46]?
Its GI50 is > 100 µM (inactive).

And the GI50 [47]?
Its GI50 is 74.1 µM (inactive).

And the GI50 [48]?
Its GI50 is > 100 µM (inactive).

And the GI50 [49]?
Its GI50 is 87.3 µM (inactive).

What about the GI50 [50] of the same compound?
The GI50 was > 100 µM (inactive).

What about the GI50 [51] of the same compound?
The GI50 was 30.5 µM (inactive).

What about the GI50 [52] of the same compound?
The GI50 was 21.1 µM (inactive).

And the GI50 [53]?
Its GI50 is > 100 µM (inactive).

And the GI50 [54]?
Its GI50 is 88.7 µM (inactive).

What about the GI50 [55] of the same compound?
Its GI50 is 58.9 µM (inactive).

And the GI50 [56]?
Its GI50 is 37.7 µM (inactive).

And the GI50 [57]?
Its GI50 is > 100 µM (inactive).

What about the GI50 [58] of the same compound?
The GI50 was > 100 µM (inactive).

And the GI50 [59]?
Its GI50 is 64.6 µM (inactive).

Which GI50 [1] does the source give for `CCNC(=O)c1ccc(C)c(/N=N/N(C)C)c1` here?
Its GI50 is > 100 µM (inactive).

And the GI50 [2]?
Its GI50 is > 100 µM (inactive).

And the GI50 [3]?
The GI50 was > 100 µM (inactive).

What about the GI50 [8] of the same compound?
The GI50 was > 100 µM (inactive).

What about the GI50 [11] of the same compound?
The GI50 was > 100 µM (inactive).

And the GI50 [12]?
Its GI50 is > 100 µM (inactive).

What about the GI50 [60] of the same compound?
Its GI50 is > 100 µM (inactive).

What about the GI50 [14] of the same compound?
Its GI50 is > 100 µM (inactive).

And the GI50 [15]?
The GI50 was > 100 µM (inactive).

What about the GI50 [16] of the same compound?
The GI50 was > 100 µM (inactive).

What about the GI50 [19] of the same compound?
The GI50 was > 100 µM (inactive).

What about the GI50 [20] of the same compound?
Its GI50 is > 100 µM (inactive).

What about the GI50 [21] of the same compound?
The GI50 was > 100 µM (inactive).

And the GI50 [22]?
The GI50 was > 100 µM.

What about the GI50 [61] of the same compound?
Its GI50 is > 100 µM (inactive).

And the GI50 [23]?
The GI50 was > 100 µM (inactive).

What about the GI50 [27] of the same compound?
Its GI50 is > 100 µM (inactive).

What about the GI50 [28] of the same compound?
The GI50 was > 100 µM (inactive).

And the GI50 [32]?
The GI50 was > 100 µM (inactive).

What about the GI50 [33] of the same compound?
Its GI50 is 81.1 µM (inactive).

And the GI50 [34]?
Its GI50 is > 100 µM (inactive).

And the GI50 [35]?
The GI50 was > 100 µM (inactive).

What about the GI50 [37] of the same compound?
Its GI50 is > 100 µM (inactive).

And the GI50 [38]?
Its GI50 is 77.1 µM (inactive).

What about the GI50 [62] of the same compound?
The GI50 was > 100 µM (inactive).

And the GI50 [40]?
The GI50 was > 100 µM (inactive).

And the GI50 [63]?
The GI50 was > 100 µM (inactive).

And the GI50 [42]?
Its GI50 is > 100 µM (inactive).

And the GI50 [43]?
The GI50 was > 100 µM (inactive).

And the GI50 [44]?
Its GI50 is > 100 µM (inactive).

And the GI50 [64]?
The GI50 was > 100 µM (inactive).

And the GI50 [46]?
Its GI50 is > 100 µM (inactive).

What about the GI50 [48] of the same compound?
Its GI50 is > 100 µM (inactive).

What about the GI50 [49] of the same compound?
Its GI50 is > 100 µM (inactive).

What about the GI50 [52] of the same compound?
Its GI50 is > 100 µM (inactive).

What about the GI50 [53] of the same compound?
Its GI50 is > 100 µM (inactive).

What about the GI50 [55] of the same compound?
The GI50 was > 100 µM (inactive).

And the GI50 [56]?
Its GI50 is > 100 µM (inactive).

And the GI50 [57]?
Its GI50 is > 100 µM (inactive).

What about the GI50 [58] of the same compound?
Its GI50 is > 100 µM (inactive).

And the GI50 [65]?
Its GI50 is > 100 µM (inactive).
